The text below walks through data of US9096591B2, “Tetracyclic compounds” (Medivation Technologies, Inc., priority 2007, dated 2015).

For assay [1], the target named is T1, human recombinant adrenergic α1D receptor (Homo sapiens, UniProt P25100).
T1 construct: expressed in transfected cells; host or cells: HEK-293 cells
T1 sequence (P25100 1-572): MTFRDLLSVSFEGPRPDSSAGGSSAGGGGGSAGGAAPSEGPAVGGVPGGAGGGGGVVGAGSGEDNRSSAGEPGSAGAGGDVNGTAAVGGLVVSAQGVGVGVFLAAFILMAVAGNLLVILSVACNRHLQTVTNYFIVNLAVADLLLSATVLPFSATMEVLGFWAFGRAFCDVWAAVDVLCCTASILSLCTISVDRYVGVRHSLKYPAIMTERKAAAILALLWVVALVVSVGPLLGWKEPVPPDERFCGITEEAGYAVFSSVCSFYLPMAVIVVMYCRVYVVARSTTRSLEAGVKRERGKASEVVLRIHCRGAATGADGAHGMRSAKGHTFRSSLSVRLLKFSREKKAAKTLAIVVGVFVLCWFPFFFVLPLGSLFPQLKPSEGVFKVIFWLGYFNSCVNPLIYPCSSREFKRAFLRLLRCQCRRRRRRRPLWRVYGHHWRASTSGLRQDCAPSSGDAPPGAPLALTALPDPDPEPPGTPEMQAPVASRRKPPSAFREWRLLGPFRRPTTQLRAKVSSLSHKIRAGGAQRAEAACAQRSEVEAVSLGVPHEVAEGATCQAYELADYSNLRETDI
Description: Adrenergic α1D radioligand binding ([3H]Prozosin). Also noted: Inhibition of ligand binding, Adren. alpha1D: concentration or dose not given beside the values. The note with it: percent inhibition of specific binding. How it is done: Compounds of invention were incubated with 0.6 nM [^3H]Prozosin for 60 minutes at 25° C. Non-specific binding was estimated in the presence of 10 μM phentolamine. Receptor proteins were filtered and washed, the filters were then counted to determine [^3H]Prozosin specifically bound. […] Biochemical assay results are presented as the percent inhibition of specific binding in Table 6.

Assay [2] has as its target T2, human recombinant dopamine D2L receptor (Homo sapiens, UniProt P14416).
T2 construct: expressed in transfected cells; host or cells: CHO cells
The assay is described as follows: Dopamine D2L radioligand binding ([3H]Spiperone). The note with it: percent inhibition of specific binding. Here is the method:
Non-specific binding was estimated in the presence of 10 μM Haloperidol. Receptor proteins were filtered and washed, the filters were then counted to determine [^3H]Spiperone specifically bound. […] Biochemical assay results are presented as the percent inhibition of specific binding in Table 6.

The target in assay [3] is T3, human recombinant histamine H2 receptor (Homo sapiens, UniProt P25021).
T3 construct: expressed in transfected cells; host or cells: CHO-K1 cells
Description: Histamine H2 radioligand binding ([125I]Aminopotentidine). The note with it: percent inhibition of specific binding; screened at 1 μM; read-out: Inhibition of ligand binding, Hist. H2. Summed up:
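Test compounds were assessed for their ability to displace radioligand from the human recombinant histamine H2 receptor. Non-specific binding was determined in the presence of 3 μM Tiotidine, and results were expressed as percent inhibition of specific binding, with 1% DMSO serving as the vehicle.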

Assay [4] concerns the target T4, human recombinant adrenergic α2A receptor (Homo sapiens, UniProt P08913).
T4 construct: expressed in transfected cells; host or cells: insect Sf9 cells
T4 sequence (P08913 1-465): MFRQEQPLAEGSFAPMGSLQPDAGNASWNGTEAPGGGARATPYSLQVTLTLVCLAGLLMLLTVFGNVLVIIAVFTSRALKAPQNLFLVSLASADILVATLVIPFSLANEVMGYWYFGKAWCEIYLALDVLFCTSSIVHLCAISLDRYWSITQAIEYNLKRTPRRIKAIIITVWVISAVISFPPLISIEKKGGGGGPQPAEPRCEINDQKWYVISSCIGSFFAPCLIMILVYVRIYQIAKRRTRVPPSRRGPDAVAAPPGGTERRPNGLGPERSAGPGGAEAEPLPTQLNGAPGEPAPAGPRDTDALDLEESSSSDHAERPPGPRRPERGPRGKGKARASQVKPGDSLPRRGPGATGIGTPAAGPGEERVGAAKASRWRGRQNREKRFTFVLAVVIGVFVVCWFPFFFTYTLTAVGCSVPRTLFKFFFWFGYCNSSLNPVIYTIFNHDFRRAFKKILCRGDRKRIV
Description: Adrenergic α2A radioligand binding ([3H]MK-912). The note with it: percent inhibition of specific binding. Details: Inhibition of ligand binding, Adren. alpha2A: concentration or dose not given beside the values. In a few lines: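 Membranes from Sf9 cells expressing the receptor were incubated with 1 nM [3H]MK-912 for 60 minutes at 25° C in 50 mM Tris-HCl pH 7.4, 12.5 mM MgCl2, 2 mM EDTA. 10 μM WB-4101 defined non-specific binding. Values are percent inhibition of specific bound radioactivity after filtration.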

For assay [5], the target named is T5, human recombinant serotonin (5-Hydroxytryptamine) 5-HT2A receptor (Homo sapiens, UniProt P28223).
T5 construct: expressed in transfected cells; host or cells: CHO-K1 cells
The assay is described as follows: Serotonin 5-HT2A radioligand binding ([3H]Ketanserin). The note with it: percent inhibition of specific binding. Here is the method:
Compounds of the invention were incubated with 0.5 nM [^3H]Ketanserin for 60 minutes at 25° C. Non-specific binding was estimated in the presence of 1 μM Mianserin. Receptor proteins were filtered and washed, the filters were then counted to determine [^3H]Ketanserin specifically bound. […] Biochemical assay results are presented as the percent inhibition of specific binding in Table 6.

T5 sequence (P28223 whole entry): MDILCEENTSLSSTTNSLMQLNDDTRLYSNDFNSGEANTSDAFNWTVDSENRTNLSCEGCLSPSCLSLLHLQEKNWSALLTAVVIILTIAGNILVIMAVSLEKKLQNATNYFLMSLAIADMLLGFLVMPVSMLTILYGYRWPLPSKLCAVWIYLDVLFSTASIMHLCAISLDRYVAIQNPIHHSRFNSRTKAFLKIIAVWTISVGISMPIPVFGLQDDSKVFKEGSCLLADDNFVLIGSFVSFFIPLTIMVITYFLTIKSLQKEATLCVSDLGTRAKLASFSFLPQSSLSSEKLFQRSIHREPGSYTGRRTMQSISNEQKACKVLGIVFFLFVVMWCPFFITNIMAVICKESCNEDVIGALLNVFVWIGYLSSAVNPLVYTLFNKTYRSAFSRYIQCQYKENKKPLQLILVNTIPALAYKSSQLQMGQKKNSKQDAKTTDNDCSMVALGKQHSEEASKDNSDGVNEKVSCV
T2 sequence (P14416 whole entry): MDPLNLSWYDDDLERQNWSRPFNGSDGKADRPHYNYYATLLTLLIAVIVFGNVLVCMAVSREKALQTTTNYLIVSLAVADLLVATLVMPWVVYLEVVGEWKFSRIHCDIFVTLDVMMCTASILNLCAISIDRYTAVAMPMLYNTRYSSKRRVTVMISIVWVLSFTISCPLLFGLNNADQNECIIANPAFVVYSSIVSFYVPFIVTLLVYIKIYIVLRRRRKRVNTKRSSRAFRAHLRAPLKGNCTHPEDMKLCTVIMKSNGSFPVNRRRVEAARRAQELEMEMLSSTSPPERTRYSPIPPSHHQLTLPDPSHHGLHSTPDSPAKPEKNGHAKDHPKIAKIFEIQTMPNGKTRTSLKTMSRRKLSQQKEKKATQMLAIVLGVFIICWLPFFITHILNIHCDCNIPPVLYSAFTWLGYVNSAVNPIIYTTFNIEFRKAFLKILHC
T3 sequence (P25021 whole entry): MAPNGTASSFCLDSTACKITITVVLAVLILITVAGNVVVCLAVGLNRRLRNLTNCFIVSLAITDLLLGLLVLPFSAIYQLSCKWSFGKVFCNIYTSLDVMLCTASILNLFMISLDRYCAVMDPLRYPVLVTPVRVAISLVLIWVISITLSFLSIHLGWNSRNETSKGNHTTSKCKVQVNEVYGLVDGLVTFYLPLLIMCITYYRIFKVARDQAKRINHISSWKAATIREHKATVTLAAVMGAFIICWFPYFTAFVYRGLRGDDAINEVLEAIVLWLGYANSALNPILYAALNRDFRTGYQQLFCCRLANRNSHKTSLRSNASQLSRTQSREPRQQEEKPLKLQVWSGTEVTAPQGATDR

Consider `OC1CCC(N2CCc3c(c4cc(Cl)ccc4n3CCc3ccc(C(F)(F)F)nc3)C2)C1` (centres unmarked) [Compound 351, 3-(8-chloro-5-(2-(6-(trifluoromethyl)pyridin-3-yl)ethyl)-3,4-dihydro-1H-pyrido[4,3-b]indol-2(5H)-yl)cyclopentanol], for which, in assay [1], the “Inhibition of ligand binding, Adren. alpha1D” value (from here on “Inhibition … Adren. alpha1D”) came to 61%. The “Inhibition of ligand binding, Dop. D2L” value in assay [2] worked out at 7%. Besides, the inhibition (commonly the relative decrease from the control value, in per cent) at 1 µM in assay [3] is -2%. Further, the “Inhibition of ligand binding, Adren. alpha2A” value (from here on “Inhibition … Adren. alpha2A”) in assay [4] was 8%. In assay [5], the “Inhibition of ligand binding, Ser. 5-HT2A” value (from here on “Inhibition … Ser. 5-HT2A”) is recorded as 1%.

Turning to `Cc1ccc2c(n1)c1c(n2CCc2ccc(C(F)(F)F)nc2)CCN(C)C1` [Compound 353, 9-aza-2,8-dimethyl-5-(2-(6-(trifluoromethyl)pyridin-3-yl)ethyl)-2,3,4,5-tetrahydro-1H-pyrido[4,3-b]indole], in assay [1], the “Inhibition … Adren. alpha1D” value worked out at 11%. Also, in assay [2], the “Inhibition of ligand binding, Dop. D2L” value was 5%. The inhibition at 1 µM in assay [3] is -2%. Further, the “Inhibition … Adren. alpha2A” value in assay [4] was 8%. Also, the “Inhibition … Ser. 5-HT2A” value in assay [5] is given as −1%.

As to `CCc1ccc2c(c1)c1c(n2CCc2ccc(C)nc2)CCN(C)C1` [Compound 357, 8-Ethyl-2-methyl-5-[2-(6-methyl-pyridin-3-yl)-ethyl]-2,3,4,5-tetrahydro-1H-pyrido[4,3-b]indole], the “Inhibition … Adren. alpha1D” value in assay [1] was determined as 89%. Moreover, in assay [2], the “Inhibition of ligand binding, Dop. D2L” value is recorded as 47%. Also, the inhibition at 1 µM in assay [3] was 68%. In addition, the “Inhibition … Adren. alpha2A” value in assay [4] was 91%. In assay [5], the “Inhibition … Ser. 5-HT2A” value came to 69%.

On to `CCc1ccc2c(c1)c1c(n2CCc2ccc(C(F)(F)F)nc2)CCN(C)C1` [Compound 358, 8-Ethyl-2-methyl-5-[2-(6-trifluoromethyl-pyridin-3-yl)-ethyl]-2,3,4,5-tetrahydro-1H-pyrido[4,3-b]indole], for which the “Inhibition … Adren. alpha1D” value in assay [1] amounted to 95%. The “Inhibition of ligand binding, Dop. D2L” value in assay [2] is listed as 38%. Also, the inhibition at 1 µM in assay [3] is 47%. The “Inhibition … Adren. alpha2A” value in assay [4] was 96%. Also, the “Inhibition … Ser. 5-HT2A” value in assay [5] is 95%.

Regarding `CCc1ccc(CCn2c3c(c4cc(C)ccc42)CN(C)CC3)cn1` [Compound 359, 5-[2-(6-Ethyl-pyridin-3-yl)-ethyl]-2,8-dimethyl-2,3,4,5-tetrahydro-1H-pyrido[4,3-b]indole], the “Inhibition … Adren. alpha1D” value in assay [1] was found to be 95%. Also, in assay [2], the “Inhibition of ligand binding, Dop. D2L” value worked out at 51%. In assay [3], the inhibition at 1 µM was determined as 94%. In addition, in assay [4], the “Inhibition … Adren. alpha2A” value is on record as 77%. Further, the “Inhibition … Ser. 5-HT2A” value in assay [5] worked out at 96%.

Consider `Cc1ncc(CCn2c3c(c4cc(Cl)ccc42)CN(C)CC3)cn1` [Compound 361, 8-Chloro-2-methyl-5-[2-(2-methyl-pyrimidin-5-yl)-ethyl]-2,3,4,5-tetrahydro-1H-pyrido[4,3-b]indole], for which the “Inhibition … Adren. alpha1D” value in assay [1] is 87%. Besides, the “Inhibition of ligand binding, Dop. D2L” value in assay [2] was determined as 31%. Also, in assay [3], the inhibition at 1 µM is 25%. Besides, the “Inhibition … Adren. alpha2A” value in assay [4] is given as 30%. For the same compound, the “Inhibition … Ser. 5-HT2A” value in assay [5] was found to be 60%.

With `CCc1ccc2c(c1)c1c(n2CCc2cnc(C)nc2)CCN(C)C1` [Compound 362, 8-Ethyl-2-methyl-5-[2-(2-methyl-pyrimidin-5-yl)-ethyl]-2,3,4,5-tetrahydro-1H-pyrido[4,3-b]indole], the “Inhibition … Adren. alpha1D” value in assay [1] turned out to be 76%. Moreover, the “Inhibition of ligand binding, Dop. D2L” value in assay [2] is 17%. Also, the inhibition at 1 µM in assay [3] turned out to be 19%. Moreover, the “Inhibition … Adren. alpha2A” value in assay [4] was determined as 14%. Also, in assay [5], the “Inhibition … Ser. 5-HT2A” value is on record as 27%.

Take `Cc1cnc(CCn2c3c(c4cc(Cl)ccc42)CN(C)CC3)cn1` [Compound 363, 8-Chloro-2-methyl-5-[2-(5-methyl-pyrazin-2-yl)-ethyl]-2,3,4,5-tetrahydro-1H-pyrido[4,3-b]indole]: in assay [1], the “Inhibition … Adren. alpha1D” value is 73%. Besides, the “Inhibition of ligand binding, Dop. D2L” value in assay [2] stood at 24%. In assay [3], the inhibition at 1 µM is 31%. Also, the “Inhibition … Adren. alpha2A” value in assay [4] was found to be 59%. In addition, the “Inhibition … Ser. 5-HT2A” value in assay [5] is on record as 75%.

Regarding `CCc1ccc2c(c1)c1c(n2CCc2cnc(C)cn2)CCN(C)C1` [Compound 364, 8-Ethyl-2-methyl-5-[2-(5-methyl-pyrazin-2-yl)-ethyl]-2,3,4,5-tetrahydro-1H-pyrido[4,3-b]indole], the “Inhibition … Adren. alpha1D” value in assay [1] worked out at 77%. Moreover, the “Inhibition of ligand binding, Dop. D2L” value in assay [2] was determined as 29%. Besides, the inhibition at 1 µM in assay [3] is 13%. Also, in assay [4], the “Inhibition … Adren. alpha2A” value was 65%. Besides, the “Inhibition … Ser. 5-HT2A” value in assay [5] is 59%.

On to `Cc1cnc(CCn2c3c(c4cc(C(C)C)ccc42)CN(C)CC3)cn1` [Compound 369, 8-Isopropyl-2-methyl-5-[2-(5-methyl-pyrazin-2-yl)-ethyl]-2,3,4,5-tetrahydro-1H-pyrido[4,3-b]indole], for which the “Inhibition … Adren. alpha1D” value in assay [1] came out at 51%. Besides, the “Inhibition of ligand binding, Dop. D2L” value in assay [2] is recorded as 1%. Besides, the inhibition at 1 µM in assay [3] is 6%. Moreover, the “Inhibition … Adren. alpha2A” value in assay [4] came out at 25%. In addition, the “Inhibition … Ser. 5-HT2A” value in assay [5] is 10%.

Turning to `Cc1ncc(CCn2c3c(c4cc(C(C)C)ccc42)CN(C)CC3)cn1` [Compound 370, 8-Isopropyl-2-methyl-5-[2-(2-methyl-pyrimidin-5-yl)-ethyl]-2,3,4,5-tetrahydro-1H-pyrido[4,3-b]indole], in assay [1], the “Inhibition … Adren. alpha1D” value is on record as 71%. The “Inhibition of ligand binding, Dop. D2L” value in assay [2] is 10%. For the same compound, in assay [3], the inhibition at 1 µM was found to be 18%. The “Inhibition … Adren. alpha2A” value in assay [4] is on record as 35%. Further, the “Inhibition … Ser. 5-HT2A” value in assay [5] is given as 15%.

In the case of `CCc1ccc(CCn2c3c(c4cc(Cl)ccc42)CN(C)CC3)cn1` [Compound 371, 8-Chloro-5-[2-(6-ethyl-pyridin-3-yl)-ethyl]-2-methyl-2,3,4,5-tetrahydro-1H-pyrido[4,3-b]indole], the “Inhibition … Adren. alpha1D” value in assay [1] came out at 88%. The “Inhibition of ligand binding, Dop. D2L” value in assay [2] stood at 40%. For the same compound, in assay [3], the inhibition at 1 µM was 74%. The “Inhibition … Adren. alpha2A” value in assay [4] is given as 89%. Further, in assay [5], the “Inhibition … Ser. 5-HT2A” value came to 93%.

For `Cc1cccc2c3c(n(CCc4ccc(C(F)(F)F)nc4)c12)CCN(C)C3` [Compound 380, 5-(2-(6-(trifluoromethyl)pyridin-3-yl)ethyl)-2,3,4,5-tetrahydro-2,6-dimethyl-1H-pyrido[4,3-b]indole], the “Inhibition … Adren. alpha1D” value in assay [1] was 73%. Besides, the “Inhibition of ligand binding, Dop. D2L” value in assay [2] is −5%. In addition, in assay [3], the inhibition at 1 µM was 69%. Moreover, the “Inhibition … Adren. alpha2A” value in assay [4] is on record as 78%. Also, in assay [5], the “Inhibition … Ser. 5-HT2A” value is 88%.
